Source: ChEMBL document CHEMBL2150938, “Pyrrolo[2,3-b]quinoxalines as inhibitors of firefly luciferase: their Cu-mediated synthesis and evaluation as false positives in a reporter gene assay” (Bioorg Med Chem Lett, 2012)

What was measured:
Lampyridae = experiment: inhibition of firefly luciferase at 30 uM after 15 mins by luminescence assay
[1] = biological target: 3',5'-cyclic-AMP phosphodiesterase 4B (Homo sapiens) (UniProt Q07343); experiment: Inhibition of PDE4B at 30 uM by luciferase reporter gene assay
Chain of 3',5'-cyclic-AMP phosphodiesterase 4B (Homo sapiens) (Q07343 whole entry): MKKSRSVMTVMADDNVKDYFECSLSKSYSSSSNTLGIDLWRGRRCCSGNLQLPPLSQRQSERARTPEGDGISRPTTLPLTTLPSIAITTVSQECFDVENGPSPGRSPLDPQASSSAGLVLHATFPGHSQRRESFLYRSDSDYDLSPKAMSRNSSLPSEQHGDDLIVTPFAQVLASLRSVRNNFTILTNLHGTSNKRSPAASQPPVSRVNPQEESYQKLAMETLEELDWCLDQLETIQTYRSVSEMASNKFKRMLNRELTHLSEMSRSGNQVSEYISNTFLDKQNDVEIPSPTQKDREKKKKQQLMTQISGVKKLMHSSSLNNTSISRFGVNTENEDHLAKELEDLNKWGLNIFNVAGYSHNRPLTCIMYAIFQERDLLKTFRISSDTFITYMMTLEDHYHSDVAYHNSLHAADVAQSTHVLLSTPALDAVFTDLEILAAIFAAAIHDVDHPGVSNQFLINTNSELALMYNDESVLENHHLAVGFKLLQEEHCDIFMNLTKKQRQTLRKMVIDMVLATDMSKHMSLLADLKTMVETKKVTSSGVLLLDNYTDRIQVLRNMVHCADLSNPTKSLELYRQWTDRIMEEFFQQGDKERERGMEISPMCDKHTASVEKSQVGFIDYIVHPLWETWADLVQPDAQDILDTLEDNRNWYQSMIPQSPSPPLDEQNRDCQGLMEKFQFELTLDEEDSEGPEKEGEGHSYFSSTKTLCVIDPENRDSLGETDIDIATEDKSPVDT

Structure (SMILES) | inhibition (Lampyridae) | inhibition [1]
CC(C)(C)c1cc2nc3ccccc3nc2[nH]1 | 99.2% | 100%
c1ccc(-c2cc3[nH]c4ccccc4nc-3n2)cc1 | 98.4% | 98.3%
CS(=O)(=O)n1c(-c2ccccc2)cc2nc3ccccc3nc21 | 92.4% | 94.7%
